The source made the active and inactive calls. No rule for the calls is given here.
Test system: CCRIS mutagenicity, Ames/micronucleus/aberration tests
Test: CCRIS mutagenicity studies

Measured: mutagenic call

O=NO
active: Test System: AMES SALMONELLA TYPHIMURIUM, Strain/Indicator: TA100, Metabolic Activation: HAMSTER LIVER S-9, AROCLOR 1254 (30%), Method: PREINCUBATION active; positive | Test System: AMES SALMONELLA TYPHIMURIUM, Strain/Indicator: TA100, Metabolic Activation: HAMSTER, LIVER, S-9, AROCLOR 1254 (30%), Method: PREINCUBATION active; positive | Test System: AMES SALMONELLA TYPHIMURIUM, Strain/Indicator: TA100, Metabolic Activation: NONE, Method: PREINCUBATION active; positive | Test System: AMES SALMONELLA TYPHIMURIUM, Strain/Indicator: TA100, Metabolic Activation: NONE, Method: STANDARD PLATE active; positive | Test System: AMES SALMONELLA TYPHIMURIUM, Strain/Indicator: TA100, Metabolic Activation: RAT LIVER S-9, AROCLOR 1254 (30%), Method: PREINCUBATION active; positive | Test System: AMES SALMONELLA TYPHIMURIUM, Strain/Indicator: TA100, Metabolic Activation: RAT, LIVER, S-9, AROCLOR 1254 (30%), Method: PREINCUBATION active; positive | Test System: AMES SALMONELLA TYPHIMURIUM, Strain/Indicator: TA100, Metabolic Activation: RAT, LIVER, S-9, AROCLOR 1254, Method: PREINCUBATION active; positive | Test System: AMES SALMONELLA TYPHIMURIUM, Strain/Indicator: TA100, Metabolic Activation: RAT, LIVER, S-9, AROCLOR 1254, Method: STANDARD PLATE active; positive | Test System: AMES SALMONELLA TYPHIMURIUM, Strain/Indicator: TA100, Metabolic Activation: RAT, LIVER, S-9, Method: STANDARD PLATE active; positive | Test System: AMES SALMONELLA TYPHIMURIUM, Strain/Indicator: TA104, Metabolic Activation: RAT, LIVER, S-9, AROCLOR 1254, Method: PREINCUBATION active; positive | Test System: AMES SALMONELLA TYPHIMURIUM, Strain/Indicator: TA1530, Metabolic Activation: NONE, Method: PREINCUBATION active; positive | Test System: AMES SALMONELLA TYPHIMURIUM, Strain/Indicator: TA1530, Metabolic Activation: NONE, Method: STANDARD PLATE active; positive | Test System: AMES SALMONELLA TYPHIMURIUM, Strain/Indicator: TA1530, Metabolic Activation: RAT, LIVER, S-9, AROCLOR 1254, Method: PREINCUBATION active; positive | Test System: AMES SALMONELLA TYPHIMURIUM, Strain/Indicator: TA1530, Metabolic Activation: RAT, LIVER, S-9, AROCLOR 1254, Method: STANDARD PLATE active; positive | Test System: AMES SALMONELLA TYPHIMURIUM, Strain/Indicator: TA1535, Metabolic Activation: NONE, Method: PREINCUBATION active; positive | Test System: AMES SALMONELLA TYPHIMURIUM, Strain/Indicator: TA1535, Metabolic Activation: NONE, Method: STANDARD PLATE active; positive | Test System: AMES SALMONELLA TYPHIMURIUM, Strain/Indicator: TA1535, Metabolic Activation: RAT, LIVER, S-9, AROCLOR 1254, Method: PREINCUBATION active; positive | Test System: AMES SALMONELLA TYPHIMURIUM, Strain/Indicator: TA1535, Metabolic Activation: RAT, LIVER, S-9, AROCLOR 1254, Method: STANDARD PLATE active; positive | Test System: AMES SALMONELLA TYPHIMURIUM, Strain/Indicator: TA1535, Metabolic Activation: RAT, LIVER, S-9, Method: STANDARD PLATE active; positive | Test System: CHINESE HAMSTER V-79, Strain/Indicator: V-79/6-THIOGUANINE, Metabolic Activation: NONE active; positive | Test System: MOUSE LYMPHOMA, Strain/Indicator: L5178Y (TK+/TK-), Metabolic Activation: NONE, Method: SUSPENSION/PLATE active; positive
inactive: End Point: IN VIVO MICRONUCLEUS, Test System: BONE MARROW POLYCHROMATIC ERYTHROCYTES, Species: MOUSE, Strain/Sex: DDY/MALE, Route: IP inactive; negative | End Point: IN VIVO MICRONUCLEUS, Test System: BONE MARROW POLYCHROMATIC ERYTHROCYTES, Species: MOUSE, Strain/Sex: DDY/MALE, Route: ORAL inactive; negative | End Point: In vitro chromosomal aberrations, Test System: Chinese hamster lung CHL/IU cells, Metabolic Activation: None inactive; negative | Test System: AMES SALMONELLA TYPHIMURIUM, Strain/Indicator: DJ400, Metabolic Activation: NONE, Method: PREINCUBATION inactive; negative | Test System: AMES SALMONELLA TYPHIMURIUM, Strain/Indicator: DJ400, Metabolic Activation: NONE, Method: STANDARD PLATE inactive; negative | Test System: AMES SALMONELLA TYPHIMURIUM, Strain/Indicator: DJ400, Metabolic Activation: RAT, LIVER, S-9, AROCLOR 1254, Method: PREINCUBATION inactive; negative | Test System: AMES SALMONELLA TYPHIMURIUM, Strain/Indicator: DJ400, Metabolic Activation: RAT, LIVER, S-9, AROCLOR 1254, Method: STANDARD PLATE inactive; negative | Test System: AMES SALMONELLA TYPHIMURIUM, Strain/Indicator: DJ460, Metabolic Activation: NONE, Method: PREINCUBATION inactive; negative | Test System: AMES SALMONELLA TYPHIMURIUM, Strain/Indicator: DJ460, Metabolic Activation: NONE, Method: STANDARD PLATE inactive; negative | Test System: AMES SALMONELLA TYPHIMURIUM, Strain/Indicator: DJ460, Metabolic Activation: RAT, LIVER, S-9, AROCLOR 1254, Method: PREINCUBATION inactive; negative | Test System: AMES SALMONELLA TYPHIMURIUM, Strain/Indicator: DJ460, Metabolic Activation: RAT, LIVER, S-9, AROCLOR 1254, Method: STANDARD PLATE inactive; negative | Test System: AMES SALMONELLA TYPHIMURIUM, Strain/Indicator: TA97, Metabolic Activation: NONE, Method: STANDARD PLATE inactive; negative | Test System: AMES SALMONELLA TYPHIMURIUM, Strain/Indicator: TA97, Metabolic Activation: RAT, LIVER, S-9, AROCLOR 1254, Method: STANDARD PLATE inactive; negative | Test System: AMES SALMONELLA TYPHIMURIUM, Strain/Indicator: TA98, Metabolic Activation: HAMSTER LIVER S-9, AROCLOR 1254 (30%), Method: PREINCUBATION inactive; negative | Test System: AMES SALMONELLA TYPHIMURIUM, Strain/Indicator: TA98, Metabolic Activation: HAMSTER, LIVER, S-9, AROCLOR 1254 (30%), Method: PREINCUBATION inactive; negative | Test System: AMES SALMONELLA TYPHIMURIUM, Strain/Indicator: TA98, Metabolic Activation: NONE, Method: PREINCUBATION inactive; negative | Test System: AMES SALMONELLA TYPHIMURIUM, Strain/Indicator: TA98, Metabolic Activation: NONE, Method: STANDARD PLATE inactive; negative | Test System: AMES SALMONELLA TYPHIMURIUM, Strain/Indicator: TA98, Metabolic Activation: RAT LIVER S-9, AROCLOR 1254 (30%), Method: PREINCUBATION inactive; negative | Test System: AMES SALMONELLA TYPHIMURIUM, Strain/Indicator: TA98, Metabolic Activation: RAT, LIVER, S-9, AROCLOR 1254 (30%), Method: PREINCUBATION inactive; negative | Test System: AMES SALMONELLA TYPHIMURIUM, Strain/Indicator: TA98, Metabolic Activation: RAT, LIVER, S-9, AROCLOR 1254, Method: STANDARD PLATE inactive; negative | Test System: AMES SALMONELLA TYPHIMURIUM, Strain/Indicator: TA98, Metabolic Activation: RAT, LIVER, S-9, Method: STANDARD PLATE inactive; negative | Test System: AMES SALMONELLA TYPHIMURIUM, Strain/Indicator: TA102, Metabolic Activation: NONE, Method: PREINCUBATION inactive; negative | Test System: AMES SALMONELLA TYPHIMURIUM, Strain/Indicator: TA102, Metabolic Activation: NONE, Method: STANDARD PLATE inactive; negative | Test System: AMES SALMONELLA TYPHIMURIUM, Strain/Indicator: TA102, Metabolic Activation: RAT, LIVER, S-9, AROCLOR 1254, Method: PREINCUBATION inactive; negative | Test System: AMES SALMONELLA TYPHIMURIUM, Strain/Indicator: TA102, Metabolic Activation: RAT, LIVER, S-9, AROCLOR 1254, Method: STANDARD PLATE inactive; negative | Test System: AMES SALMONELLA TYPHIMURIUM, Strain/Indicator: TA1537, Metabolic Activation: NONE, Method: STANDARD PLATE inactive; negative | Test System: AMES SALMONELLA TYPHIMURIUM, Strain/Indicator: TA1537, Metabolic Activation: RAT, LIVER, S-9, AROCLOR 1254, Method: STANDARD PLATE inactive; negative | Test System: AMES SALMONELLA TYPHIMURIUM, Strain/Indicator: TA1538, Metabolic Activation: NONE, Method: STANDARD PLATE inactive; negative | Test System: AMES SALMONELLA TYPHIMURIUM, Strain/Indicator: TA1538, Metabolic Activation: RAT, LIVER, S-9, AROCLOR 1254, Method: STANDARD PLATE inactive; negative | Test System: AMES SALMONELLA TYPHIMURIUM, Strain/Indicator: TA1538, Metabolic Activation: RAT, LIVER, S-9, Method: STANDARD PLATE inactive; negative | Test System: AMES SALMONELLA TYPHIMURIUM, Strain/Indicator: YG1024, Metabolic Activation: NONE, Method: PREINCUBATION inactive; negative | Test System: AMES SALMONELLA TYPHIMURIUM, Strain/Indicator: YG1024, Metabolic Activation: NONE, Method: STANDARD PLATE inactive; negative | Test System: AMES SALMONELLA TYPHIMURIUM, Strain/Indicator: YG1024, Metabolic Activation: RAT, LIVER, S-9, AROCLOR 1254, Method: PREINCUBATION inactive; negative | Test System: AMES SALMONELLA TYPHIMURIUM, Strain/Indicator: YG1024, Metabolic Activation: RAT, LIVER, S-9, AROCLOR 1254, Method: STANDARD PLATE inactive; negative | Test System: E. COLI, Strain/Indicator: WP2, Metabolic Activation: NONE, Method: STANDARD PLATE inactive; negative | Test System: E. COLI, Strain/Indicator: WP2, Metabolic Activation: RAT, LIVER, S-9, AROCLOR 1254, Method: STANDARD PLATE inactive; negative | Test System: E.COLI, Strain/Indicator: WP2UVRA/PKM101, Metabolic Activation: NONE, Method: PREINCUBATION inactive; negative | Test System: E.COLI, Strain/Indicator: WP2UVRA/PKM101, Metabolic Activation: RAT LIVER S-9, PHENOBARBITAL AND 5,6-BENZOFLAVONE, Method: PREINCUBATION inactive; negative

— PubChem BioAssay AID1259407 (Chemical Carcinogenesis Research Information System (CCRIS), 2018)
